Measurements published in patent US20240002391A1, “4-ALKOXYPYRROLO[2,1-F][1,2,4]TRIAZINES AND PREPARATION AND USES THEREOF” (BioSplice Therapeutics, Inc., priority 2022, published 2024).

How the values were obtained:
[1] = test system: Tau phosphorylation at Thr212 (pThr212) in HEK293T cells transfected with DYRK1A and MAPT; experiment: Tau phosphorylation phosphoTau (Thr212) AlphaLISA assay in HEK293T cells transfected with DYRK1A and MAPT; assay type: cell-based; details: HEK-293T, HEK293T cells transiently transfected with human DYRK1A and MAPT, compound treatment 18-24 hours, read-out: pTau (Thr212) EC50
Procedure: Representative compounds were screened using the assay procedure for tau phosphorylation activity described below.
HEK293T cells (ATCC, CRL3216) cultured in DMEM (Thermo Fisher Scientific, 10566024) supplemented with 10% FBS (Coming, 35-011—CV) and Penicillin/Streptomycin (Thermo Fisher Scientific, 15140163) were seeded in a 75 cm^2 flask at 8.1×10^6 cells/flask. The HEK293T cells were then transiently transfected with 5 μg DYRK1A (NM_001396) human untagged clone (OriGene, SC314641) and 2.5 μg MAPT (441 a.a. Tau gene) (NM_005910) human untagged clone (OriGene, TP313312) using Lipofectamine 3000 (Thermo Fisher Scientific, L30000015) and incubated for 20-30 hours in a humidified incubator at 37° C. and 5% CO^2. Post-incubation, HEK293T cells transfected with the DYRK1A and MAPT expression vectors were harvested and seeded in BioCoat poly-D lysine coated 96-well plates (Coming, 354461) at 3×10^4 cells/well.
The above synthesized compounds were screened using the cell assay procedure to assess decreased Tau phosphorylation at Thr212 (pThr212) described below.
Each compound was dissolved in DMSO (Sigma-Aldrich, D8418-100 mL) as a 10 mM stock. 10 mM stocks were serially diluted 1:3, 10-point dose-response curve and added to the cells with a final concentration ranging from 20 μM to 1.1 nM. Cells were treated with compounds in duplicate and incubated for 18-24 hours in a humidified incubator at 37° C. and 5% CO^2.
Following the overnight compound treatment, cells were lysed with 1X Alpha Surefire Ultra Lysis Buffer (Perkin Elmer, ALSU-LB-100ML) complemented with 1X Halt Phosphatase Inhibitor Cocktail (Thermo Fisher Scientific, 78427) and 1X Halt Protease Inhibitor Cocktail (Thermo Fisher Scientific, 78438). Lysates were spun down at 12,000 g for 10 min to remove any cellular debris and 5 μL of lysates were dispensed into a 384-well Opti-Plate (Perkin Elmer, 6007290) for the measurement of Tau phosphorylation in the phosphoTau (Thr212) AlphaLISA assay. Donor antibody, biotinylated HT7Tau (Thermo Fisher Scientific, MN1000B), and acceptor antibody, pThr212Tau (Thermo Fisher Scientific, 44740G) were both added to the cell lysates at a final concentration of 3 nM and incubated for 1 hour at room temperature. Following incubation of the lysates with the donor and acceptor antibodies, anti-rabbit IgG(Fc specific) AlphaLISA acceptor beads (Perkin Elmer, AL104C) were added at a 10 ug/mL final concentration and incubated for 1 hour at room temperature protected from light. Lastly, AlphaScreen streptavidin donor beads (PerkinElmer, 6760002) were added at 40 ug/mL final concentration and incubated for 1 hour at room temperature protected from light. Plates were read at […] on the EnVision Multilabel Plate Reader (Perkin Elmer). The phospho-Tau (Thr212) AlphaLISA signal was used to plot, draw the curve fitting, and determine each compound's EC50 in Prism (GraphPad).

[2] = molecular target: recombinant DYRK1A kinase (Homo sapiens (Human), UniProt Q13627); experiment: DYRK1A kinase assay (Ser/Thr 18 peptide Z-lyte FRET); assay type: biochemical; details: DYRK1A kinase activity, Z-lyte Ser/Thr 18 peptide, 15 μM ATP; method text calls the value IC50; read-out: EC50 (the source's name)
Summary of the method: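 IC50 from non-linear fits of percent phosphorylation, derived from coumarin/fluorescein emission ratio after 1 h protease development. Kinase reaction: 1 h room temperature, 15 μM ATP, 4 μM Ser/Thr peptide 18, 0.25 μg/mL recombinant DYRK1A, duplicate 11-point 1:3 dilutions from 10 μM.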

| SMILES | IC50 [2] [nM] | EC50 [1] [nM] |
| --- | --- | --- |
| COc1nc(N[C@H]2C[C@](C)(O)C2)nn2ccc(-c3ccc4nccn4c3)c12 [Compound 44, trans-3-((5-(Imidazo[1,2-a]pyridin-6-yl)-4-methoxypyrrolo[2,1-f][1,2,4]triazin-2-yl)amino)-1-methylcyclobutan-1-ol] | – | 48.2 |
| COc1nc(N[C@H]2C[C@](C)(NC(C)=O)C2)nn2ccc(-c3ccc4ncnn4c3)c12 [Compound 192, N-(trans-3-((5-([1,2,4]Triazolo[1,5-a]pyridin-6-yl)-4-methoxypyrrolo[2,1-f][1,2,4]triazin-2-yl)amino)-1-methylcyclobutyl)acetamide] | 0.9 | 18.1 |
| COc1nc(N[C@H]2C[C@](C)(O)C2)nn2ccc(-c3ccc4nnn(C)c4c3)c12 [Compound 200, trans-3-((4-Methoxy-5-(1-methyl-1H-benzo[d][1,2,3]triazol-6-yl)pyrrolo[2,1-f][1,2,4]triazin-2-yl)amino)-1-methylcyclobutan-1-ol] | 3.8 | 130 |
| CNC(=O)[C@]1(C)C[C@@H](Nc2nc(OC)c3c(-c4ccc5nnn(C)c5c4)ccn3n2)C1 [Compound 210, trans-3-((4-Methoxy-5-(1-methyl-1H-benzo[d][1,2,3]triazol-6-yl)pyrrolo[2,1-f][1,2,4]triazin-2-yl)amino)-N,1-dimethylcyclobutane-1-carboxamide] | 1.5 | 19.7 |
| COc1nc(N[C@@H]2CN(C(C)=O)C[C@@H]2F)nn2ccc(-c3ccc4nccnc4c3)c12 [Compound 352, 1-((3S,4R)-3-Fluoro-4-((4-methoxy-5-(quinoxalin-6-yl)pyrrolo[2,1-f][1,2,4]triazin-2-yl)amino)pyrrolidin-1-yl)ethan-1-one] | 2.2 | 39.4 |
| COc1nc(N[C@H]2CCN(CCO)C[C@H]2F)nn2ccc(-c3cc(F)c4nc(C)n(C(C)C)c4c3)c12 [Compound 542, 2-((3R,4S)-3-Fluoro-4-((5-(4-fluoro-1-isopropyl-2-methyl-1H-benzo[d]imidazol-6-yl)-4-methoxypyrrolo[2,1-f][1,2,4]triazin-2-yl)amino)piperidin-1-yl)ethan-1-ol] | 1.1 | – |
| COc1nc(N[C@@H]2CCN(C3COC3)CC2(F)F)nn2ccc(-c3ccc4nnn(C)c4c3)c12 [Compound 628, (R)—N-(3,3-Difluoro-1-(oxetan-3-yl)piperidin-4-yl)-4-methoxy-5-(1-methyl-1H-benzo[d][1,2,3]triazol-6-yl)pyrrolo[2,1-f][1,2,4]triazin-2-amine] | 6.3 | – |
| CCOc1nc(N[C@H]2C[C@@H](OCCO)C2)nn2ccc(-c3ccn4nccc4c3)c12 [Compound 91, 2-(cis-3-((4-Ethoxy-5-(pyrazolo[1,5-a]pyridin-5-yl)pyrrolo[2,1-f][1,2,4]triazin-2-yl)amino)cyclobutoxy)ethan-1-ol] | 1.6 | – |
| COc1nc(N[C@H]2C[C@](C)(C(=O)N(C)C)C2)nn2ccc(-c3ccc4nnn(C)c4c3)c12 [Compound 212, trans-3-((4-Methoxy-5-(1-methyl-1H-benzo[d][1,2,3]triazol-6-yl)pyrrolo[2,1-f][1,2,4]triazin-2-yl)amino)-N,N,1-trimethylcyclobutane-1-carboxamide] | 1.4 | – |
| COc1nc(NC2CCC(=O)N(C)C2)nn2ccc(-c3ccc4nc(C)n(CC(F)F)c4c3)c12 (centres unmarked) [Compound 507, 5-((5-(1-(2,2-Difluoroethyl)-2-methyl-1H-benzo[d]imidazol-6-yl)-4-methoxypyrrolo[2,1-f][1,2,4]triazin-2-yl)amino)-1-methylpiperidin-2-one] | 3.1 | – |
| COc1nc(N[C@H]2C[C@](C)(C(=O)NC3CC(F)(F)C3)C2)nn2ccc(-c3ccc4nc(C)n(CC(F)F)c4c3)c12 [Compound 504, trans-N-(3,3-Difluorocyclobutyl)-3-((5-(1-(2,2-difluoroethyl)-2-methyl-1H-benzo[d]imidazol-6-yl)-4-methoxypyrrolo[2,1-f][1,2,4]triazin-2-yl)amino)-1-methylcyclobutane-1-carboxamide] | 1.4 | – |

Continued, in another order:

| IC50 [2] [nM] | SMILES | EC50 [1] [nM] |
| --- | --- | --- |
| 0.8 | CC[C@]1(O)CC[C@H](Nc2nc(OC)c3c(-c4cnc5nccn5c4)ccn3n2)CC1 [Compound 258, trans-1-Ethyl-4-((5-(imidazo[1,2-a]pyrimidin-6-yl)-4-methoxypyrrolo[2,1-f][1,2,4]triazin-2-yl)amino)cyclohexan-1-ol] | 8.9 |
| 22.4 | COc1nc(N[C@H]2CC[C@@](C)(O)CC2)nn2ccc(-c3cnc4nc(C)n(CC(F)F)c4c3)c12 [Compound 1, cis-4-((5-(1-(2,2-Difluoroethyl)-2-methyl-1H-imidazo[4,5-b]pyridin-6-yl)-4-methoxypyrrolo[2,1-f][1,2,4]triazin-2-yl)amino)-1-methylcyclohexan-1-ol] | 21.6 |
| 1.3 | COc1nc(NC2CC3(COC3)C2)nn2ccc(-c3cnc4nccn4c3)c12 [Compound 272, 5-(Imidazo[1,2-a]pyrimidin-6-yl)-4-methoxy-N-(2-oxaspiro[3.3]heptan-6-yl)pyrrolo[2,1-f][1,2,4]triazin-2-amine] | 13.4 |
| 2.3 | COc1nc(N[C@H]2CC[C@](C)(O)CC2)nn2ccc(-c3cc(F)c4nccn4c3)c12 [Compound 431, (1r,4r)-4-((5-(8-Fluoroimidazo[1,2-a]pyridin-6-yl)-4-methoxypyrrolo[2,1-f][1,2,4]triazin-2-yl)amino)-1-methylcyclohexan-1-ol] | 129 |
| 0.6 | COc1nc(N[C@H]2CC[C@@H](OC(F)F)CC2)nn2ccc(-c3cnc4nccn4c3)c12 [Compound 250, N-(cis-4-(Difluoromethoxy)cyclohexyl)-5-(imidazo[1,2-a]pyrimidin-6-yl)-4-methoxypyrrolo[2,1-f][1,2,4]triazin-2-amine] | – |
| 6.4 | CCN1CC[C@@H](Nc2nc(OC)c3c(-c4ccc5ncnn5c4)ccn3n2)C(F)(F)C1 [Compound 577, (R)-5-([1,2,4]Triazolo[1,5-a]pyridin-6-yl)-N-(1-ethyl-3,3-difluoropiperidin-4-yl)-4-methoxypyrrolo[2,1-f][1,2,4]triazin-2-amine] | – |
| 7.7 | COc1nc(N[C@H]2CC[C@@](C)(O)CC2)nn2ccc(-c3ccc4nnn(CC(F)(F)F)c4c3)c12 [Compound 910, (1s,4s)-4-((4-Methoxy-5-(1-(2,2,2-trifluoroethyl)-1H-benzo[d][1,2,3]triazol-6-yl)pyrrolo[2,1-f][1,2,4]triazin-2-yl)amino)-1-methylcyclohexan-1-ol] | – |
| 5.5 | COc1nc(N[C@H]2CC[C@@H](OCCO)CC2)nn2ccc(-c3ccn4nccc4c3)c12 [Compound 13, 2-((cis-4-((4-Methoxy-5-(pyrazolo[1,5-a]pyridin-5-yl)pyrrolo[2,1-f][1,2,4]triazin-2-yl)amino)cyclohexyl)oxy)ethan-1-ol] | – |
| 2.9 | COc1nc(N[C@H]2C[C@](C)(C(=O)NC3CC3)C2)nn2ccc(-c3ccc4nnn(C)c4c3)c12 [Compound 218, trans-N-Cyclopropyl-3-((4-methoxy-5-(1-methyl-1H-benzo[d][1,2,3]triazol-6-yl)pyrrolo[2,1-f][1,2,4]triazin-2-yl)amino)-1-methylcyclobutane-1-carboxamide] | – |
| 0.6 | COc1nc(N[C@H]2C[C@](C)(O)C2)nn2ccc(-c3ccn4nccc4c3)c12 [Compound 8, trans-3-((4-Methoxy-5-(pyrazolo[1,5-a]pyridin-5-yl)pyrrolo[2,1-f][1,2,4]triazin-2-yl)amino)-1-methylcyclobutan-1-ol] | – |
